From patent publication US8129398B2 (priority 2008, dated 2012)

What follows are compounds tested against T1, HIV-integrase (Human immunodeficiency virus type 1 group M subtype B, UniProt P12497) (assay: HIV-Integrase Inhibition Activity (SPA bead integration assay with P33 labeled target DNA)). Settings: recombinant integrase, class symbols; read-out: in vitro activity.
T1 construct: Recombinant integrase (0.26 ng) was incubated with the beads
Assay type: biochemical
Procedure: HIV-Integrase Inhibition Activity. To evaluate in-vitro activity against HIV-integrase, 5 pmole of biotin labeled substrate DNA was bound to 100 μg of Streptavidin coated PVT SPA beads (Amersham Pharmacia Biotech). Recombinant integrase (0.26 ng) was incubated with the beads for 90 min at 37° C. Unbound enzyme was removed by washing the complex followed by addition of inhibitors and 0.1 fmol of P33 labeled target DNA. The reaction was stopped by adding EDTA to a final concentration of 10 mM. Samples were counted in TopCountNXT (Packard) and the CPM was used as a measure of integration. The reaction condition was as described in A. Engelman and R. Craigie, J. Virol. 69, 5908-5911 (1995). The sequences of substrate and target DNA were described in Nucleic Acid Research 22, 1121-1122 (1994). Activity equal to A refers to a compound having IC50=<10 nM while B and C denote compounds having […] and IC50>100 nM respectively.

Compound	IC50 [nM]
CN(C)C(=O)C(=O)N(C)C12CCC(CC1)Cn1c2nc(C(=O)NCc2ccc(F)c(F)c2)c(O)c1=O [Example 159, N-(2-((3,4-Difluorobenzyl)carbamoyl)-3-hydroxy-4-oxo-6,7,8,9-tetrahydro-7,10-ethanopyrimido[1,2-a]azepin-10(4H)-yl)-N,N′,N′-trimethylethanediamide]	< 10
CN(C)C(=O)C(=O)NC12CCC(CC1)Cn1c2nc(C(=O)NCc2cccnc2)c(O)c1=O [Example 364]	10 to 100
COc1cccc(CNC(=O)c2nc3n(c(=O)c2O)CC2CCC3(NC(=O)C(=O)N(C)C)CC2)c1 [Example 373]	< 10
O=C(NC12CCC(CC1)Cn1c2nc(C(=O)NCc2ccc(F)cc2)c(O)c1=O)OCc1ccccc1 [Example 18, Benzyl (2-((4-fluorobenzyl)carbamoyl)-3-hydroxy-4-oxo-6,7,8,9-tetrahydro-7,10-ethanopyrimido[1,2-a]azepin-10(4H)-yl)carbamate]	< 10
CC(=O)N1CCCC[C@H]1C(=O)NC12CCC(CC1)Cn1c2nc(C(=O)NCc2ccc(F)cc2)c(O)c1=O [Example 265, 7,10-Ethanopyrimido[1,2-a]azepine-2-carboxamide, 10-[[[(2S)-1-acetyl-2-piperidinyl]carbonyl]amino]-N-[(4-fluorophenyl)methyl]-4,6,7,8,9,10-hexahydro-3-hydroxy-4-oxo-]	< 10
Cc1cc(CNC(=O)c2nc3n(c(=O)c2O)CC2CCC3(NC(=O)c3ccncc3)CC2)ccc1F [Example 309, 7,10-Ethanopyrimido[1,2-a]azepine-2-carboxamide, N-[(4-fluoro-3-methylphenyl)methyl]-4,6,7,8,9,10-hexahydro-3-hydroxy-4-oxo-10-[(4-pyridinylcarbonyl)amino]-]	< 10
CN(CCF)C(=O)C(=O)NC12CCC(CC1)Cn1c2nc(C(=O)NCc2ccc(F)cc2)c(O)c1=O [Example 52, N′-(2-((4-Fluorobenzyl)carbamoyl)-3-hydroxy-4-oxo-6,7,8,9-tetrahydro-7,10-ethanopyrimido[1,2-a]azepin-10(4H)-yl)-N-(2-fluoroethyl)-N-methylethanediamide]	< 10
Cc1cc(CNC(=O)c2nc3n(c(=O)c2O)CC2CCC3(N(C)C(=O)C(=O)N(C)CC3CCCO3)CC2)ccc1F (stereo not drawn) [Example 166, N-(2-((4-Fluoro-3-methylbenzyl)carbamoyl)-3-hydroxy-4-oxo-6,7,8,9-tetrahydro-7,10-ethanopyrimido[1,2-a]azepin-10(4H)-yl)-N,N′-dimethyl-N′-(tetrahydro-2-furanylmethyl)ethanediamide]	< 10
CC(=O)NC12CCC(CC1)Cn1c2nc(C(=O)NCc2ccc(F)cc2)c(O)c1=O [Example 20, 10-(Acetylamino)-N-(4-fluorobenzyl)-3-hydroxy-4-oxo-4,6,7,8,9,10-hexahydro-7,10-ethanopyrimido[1,2-a]azepine-2-carboxamide]	< 10
Cc1cc(CNC(=O)c2nc3n(c(=O)c2O)CC2CCC3(NC(=O)Nc3ccccn3)CC2)ccc1F [Example 325, 7,10-Ethanopyrimido[1,2-a]azepine-2-carboxamide, N-[(4-fluoro-3-methylphenyl)methyl]-4,6,7,8,9,10-hexahydro-3-hydroxy-4-oxo-10-[[(2-pyridinylamino)carbonyl]amino]-]	< 10
O=C(NC12CCC(CC1)Cn1c2nc(C(=O)NCc2ccc(F)cc2)c(O)c1=O)C(=O)N1CCN(C(=O)N2CCOCC2)CC1 [Example 79, N-(4-Fluorobenzyl)-3-hydroxy-10-(((4-(4-morpholinylcarbonyl)-1-piperazinyl)(oxo)acetyl)amino)-4-oxo-4,6,7,8,9,10-hexahydro-7,10-ethanopyrimido[1,2-a]azepine-2-carboxamide]	< 10
CN(C)C(=O)C(=O)OCCNC12CCC(CC1)Cn1c2nc(C(=O)NCc2ccc(F)cc2)c(O)c1=O [Example 176]	10 to 100
Cc1ncn(C)c1C(=O)NC12CCC(CC1)Cn1c2nc(C(=O)NCc2ccc(F)cc2)c(O)c1=O [Example 243, 7,10-Ethanopyrimido[1,2-a]azepine-2-carboxamide, 10-[[(1,4-dimethyl-1H-imidazol-5-yl)carbonyl]amino]-N-[(4-fluorophenyl)methyl]-4,6,7,8,9,10-hexahydro-3-hydroxy-4-oxo-]	10 to 100
NC12CCC(Cn3c1nc(C(=O)NCc1ccc(F)cc1)c(O)c3=O)C2 (stereo not drawn) [Example 190, 7,10-Methanopyrimido[1,2-a]azepine-2-carboxamide, 10-amino-N-[(4-fluorophenyl)methyl]-4,6,7,8,9,10-hexahydro-3-hydroxy-4-oxo-]	10 to 100
COCC(=O)N1CCN(C(=O)C(=O)NC23CCC(CC2)Cn2c3nc(C(=O)NCc3ccc(F)cc3)c(O)c2=O)CC1 [Example 141, N-(4-Fluorobenzyl)-3-hydroxy-10-(((4-(methoxyacetyl)-1-piperazinyl)(oxo)acetyl)amino)-4-oxo-4,6,7,8,9,10-hexahydro-7,10-ethanopyrimido[1,2-a]azepine-2-carboxamide]	< 10
CN(C)S(=O)(=O)NC12CCC(CC1)Cn1c2nc(C(=O)NCc2ccc(F)cc2)c(O)c1=O [Example 40, 10-((Dimethylsulfamoyl)amino)-N-(4-fluorobenzyl)-3-hydroxy-4-oxo-4,6,7,8,9,10-hexahydro-7,10-ethanopyrimido[1,2-a]azepine-2-carboxamide]	< 10
O=C(NC12CCC(CC1)Cn1c2nc(C(=O)NCc2ccc(F)cc2)c(O)c1=O)NS(=O)(=O)c1ccccc1 [Example 330, 7,10-Ethanopyrimido[1,2-a]azepine-2-carboxamide, N-[(4-fluorophenyl)methyl]-4,6,7,8,9,10-hexahydro-3-hydroxy-4-oxo-10-[[[(phenylsulfonyl)amino]carbonyl]amino]-]	< 10
O=C(NC12CCC(CC1)Cn1c2nc(C(=O)NCc2ccc(F)cc2)c(O)c1=O)C(=O)N1CC[C@H](F)C1 [Example 103, N-(4-Fluorobenzyl)-10-((((3S)-3-fluoro-1-pyrrolidinyl)(oxo)acetyl)amino)-3-hydroxy-4-oxo-4,6,7,8,9,10-hexahydro-7,10-ethanopyrimido[1,2-a]azepine-2-carboxamide]	< 10
Cn1ccnc1C(=O)NC12CCC(CC1)Cn1c2nc(C(=O)NCc2ccc(F)cc2)c(O)c1=O [Example 49, N-(4-Fluorobenzyl)-3-hydroxy-10-(((1-methyl-1H-imidazol-2-yl)carbonyl)amino)-4-oxo-4,6,7,8,9,10-hexahydro-7,11-ethanopyrimido[1,2-a]azepine-2-carboxamide]	< 10
CC(=O)N1CC(F)(F)C[C@H]1C(=O)NC12CCC(CC1)Cn1c2nc(C(=O)NCc2ccc(F)c(C)c2)c(O)c1=O [Example 289, 7,10-Ethanopyrimido[1,2-a]azepine-2-carboxamide, 10-[[[(2S)-1-acetyl-4,4-difluoro-2-pyrrolidinyl]carbonyl]amino]-N-[(4-fluoro-3-methylphenyl)methyl]-4,6,7,8,9,10-hexahydro-3-hydroxy-4-oxo-]	< 10
NC(=S)NC12CCC(CC1)Cn1c2nc(C(=O)NCc2ccc(F)cc2)c(O)c1=O [Example 333, 7,10-Ethanopyrimido[1,2-a]azepine-2-carboxamide, 10-[(aminothioxomethyl)amino]-N-[(4-fluorophenyl)methyl]-4,6,7,8,9,10-hexahydro-3-hydroxy-4-oxo-]	< 10
